The values that follow come from publication PMC6742966, “The Synergism of the Small Molecule ENOblock and Fluconazole Against Fluconazole-Resistant Candida albicans” (Frontiers in Microbiology, 2019).

The target of the test is T1, C. albicans enolase 1 (rCaEno1) (Candida albicans, UniProt P30575).
T1 construct: gene ENO1; full-length, C-terminal His6 tag
Briefly: SPR (Biacore T200, immobilized rCaEno1, steady-state affinity); also inhibits transglutaminase activity of purified rCaEno1, IC50 about […], with no significant effect on enolase activity. The format is binding. On the technique in general: SPR reads the build-up and loss of mass on a sensor chip optically.

T1 sequence (P30575 whole entry): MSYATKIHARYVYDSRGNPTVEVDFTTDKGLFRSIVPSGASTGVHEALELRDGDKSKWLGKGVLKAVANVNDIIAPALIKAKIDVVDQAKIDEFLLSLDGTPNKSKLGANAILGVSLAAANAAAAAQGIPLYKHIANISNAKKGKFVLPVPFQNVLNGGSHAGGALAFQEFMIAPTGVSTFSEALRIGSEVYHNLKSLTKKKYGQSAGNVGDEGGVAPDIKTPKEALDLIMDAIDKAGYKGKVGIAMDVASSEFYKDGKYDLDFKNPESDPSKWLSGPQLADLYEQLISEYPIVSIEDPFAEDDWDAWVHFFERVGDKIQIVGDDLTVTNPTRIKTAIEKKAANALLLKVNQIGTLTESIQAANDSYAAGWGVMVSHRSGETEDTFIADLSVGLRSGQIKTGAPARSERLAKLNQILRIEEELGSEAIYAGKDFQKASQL

Regarding `NCCOCCOCCNC(=O)Cc1ccc(Nc2nc(NCc3ccc(F)cc3)nc(NCC3CCCCC3)n2)cc1` [ENOblock], the Kd was ~300 nM.

The Kd is the equilibrium constant for the complex coming apart. The low end stands for tighter binding, the high end for weaker binding.
